The values that follow come from patent US20080312164A1 (priority 2006, published 2008).

Assay [1] concerns Du145 cells. Kind of assay: Calcein AM cytotoxicity assay, Du145. Format: cell-based. The note with it: Homo sapiens, DU-145; Du145, Calcein AM, 72 h; read-out: IC50. The text has this:
(§1) Five serial 1:2 dilutions were made with anhydrous DMSO at 100× the final concentration used in the assay.

In assay [2] the test system is Du145 cells. In words: Cell Titer-Glo cytotoxicity assay, Du145. The assay is classed as cell-based. The note with it: Homo sapiens, DU-145; Du145, Cell Titer-Glo, 72 h; read-out: IC50.
From the text: as §1
(In general: In ATP-based viability assays light output follows the ATP content of the culture.)

The subject of assay [3] is HCT-116 cells. Kind of assay: Calcein AM cytotoxicity assay, HCT-116. The assay is classed as cell-based. The note with it: Homo sapiens; HCT-116, Calcein AM, 72 h; read-out: IC50.
From the text: as §1

The subject of assay [4] is HCT-116 cells. In words: Cell Titer-Glo cytotoxicity assay, HCT-116. The note with it: Homo sapiens; HCT-116, Cell Titer-Glo, 72 h; read-out: IC50. The assay is classed as cell-based.
From the text: as §1

Assay [5] deals with Hep3B cells. In words: Calcein AM cytotoxicity assay, Hep3B. The assay is classed as cell-based. As to conditions: Homo sapiens, Calcein AM, 72 h, read-out: IC50.
From the text: as §1

For assay [6], the system named is Hep3B cells. Kind of assay: Cell Titer-Glo cytotoxicity assay, Hep3B. The assay is classed as cell-based. As to conditions: Homo sapiens, Cell Titer-Glo, 72 h, read-out: IC50.
From the text: as §1

The test system of assay [7] is SF-268 cells. Kind of assay: Calcein AM cytotoxicity assay, SF-268. The assay is classed as cell-based. The note with it: Homo sapiens; SF-268, Calcein AM, 72 h; read-out: IC50.
From the text: as §1

Assay [8] deals with SF-268 cells. In words: Cell Titer-Glo cytotoxicity assay, SF-268. As to conditions: Homo sapiens; SF-268, Cell Titer-Glo, 72 h; read-out: IC50. The assay is classed as cell-based.
From the text: as §1

Assay [9] has as its system SK-OV-3 cells. Kind of assay: Calcein AM cytotoxicity assay, SK-OV-3. Format: cell-based. The note with it: Homo sapiens; SK-OV-3, Calcein AM, 72 h; read-out: IC50.
From the text: as §1

The test system of assay [10] is SK-OV-3 cells. In words: Cell Titer-Glo cytotoxicity assay, SK-OV-3. The assay is classed as cell-based. The note with it: Homo sapiens; SK-OV-3, Cell Titer-Glo, 72 h; read-out: IC50.
From the text: as §1

The test system of assay [11] is NCI/ADR RES cells. In words: Calcein AM cytotoxicity assay, NCI/ADR-RES. The assay is classed as cell-based. As to conditions: Homo sapiens, Calcein AM, 72 h, read-out: IC50.
From the text: as §1

Assay [12] relates to NCI/ADR RES cells. Kind of assay: Cell Titer-Glo cytotoxicity assay, NCI/ADR-RES. As to conditions: for IC50: Homo sapiens, NCI/ADR-RES, Cell Titer-Glo, 72 h, read-out: IC50. The assay is classed as cell-based, human.
From the text: as §1

Assay [13] has as its system NCI-H460 cells. Kind of assay: Calcein AM cytotoxicity assay, NCI-H460. The note with it: Homo sapiens; NCI-H460, Calcein AM, 72 h; read-out: IC50. The assay is classed as cell-based.
From the text: as §1

Assay [14] relates to NCI-H460 cells. In words: Cell Titer-Glo cytotoxicity assay, NCI-H460. As to conditions: for IC50: Homo sapiens, NCI-H460, Cell Titer-Glo, 72 h, read-out: IC50. Format: cell-based, human.
From the text: as §1

In assay [15] the test system is MCF7 cells. In words: Calcein AM cytotoxicity assay, MCF7. The assay is classed as cell-based. The note with it: Homo sapiens; MCF7, Calcein AM, 72 h; read-out: IC50.
From the text: as §1

Assay [16] deals with MCF7 cells. In words: Cell Titer-Glo cytotoxicity assay, MCF7. Format: cell-based, human. The note with it: for IC50: Homo sapiens, MCF7, Cell Titer-Glo, 72 h, read-out: IC50.
From the text: as §1

In assay [17] the test system is NmuMG mouse mammary normal epithelial cells. Kind of assay: Calcein AM cytotoxicity assay, NmuMG. The assay is classed as cell-based. The note with it: Epithelial cell, NmuMG, Calcein AM, 72 h, read-out: IC50.
From the text: as §1

For assay [18] the test system is unchanged. In words: Cell Titer-Glo cytotoxicity assay, NmuMG. As to conditions: Mus musculus, Epithelial cell; NmuMG, Cell Titer-Glo, 72 h; read-out: IC50. Format: cell-based.
From the text: as §1

The test system of assay [19] is HT-29 cells. Kind of assay: MTT cytotoxicity assay, HT-29. Format: cell-based. The note with it: Homo sapiens; HT-29, MTT, 24 h; read-out: IC50. A general note: Tetrazolium assays rely on reduction of a dye to a coloured formazan, in cell work by metabolically active cells.
From the text: The IC50 value for each library member represents at least twelve replicates of dose-response experiments conducted over five concentrations. […] In this assay, live cells were distinguished by the intracellular enzymatic activity that converts the cell-permeable molecule MTT to strongly colored formazan crystals, which are retained within live cells and absorb light at 570 nm.
MTT Cytotoxicity Assay. HT-29 cell lines were maintained in RPMI medium 1640 supplemented with 10% (wt/vol) FBS and 1% penicillin-streptomycin (PS) (100 units/mL and 100 μg/mL). Cells were harvested by trypsinization using 0.25% trypsin and 0.1% EDTA and plated at a density of 2,000-5,000 cells per well of each 96-well microtiter plate. Cells were grown for 24 h at 37° C., with 5% CO2/95% air in a humidified incubator to allow cell attachment to occur before compound addition. Library members were stored at −20° C. under desiccating conditions before the assay. Library member stocks (1000×) were prepared in falcon tubes (BD Biosciences). Five dilutions were made with DMSO at 1000× the final concentration used in the assay. The 1000× stocks (3 μL) were diluted with complete culture medium (3 mL). Each plate contained twelve replicates of cells treated with 0.1% DMSO in complete cell culture medium that served as an individual negative control. Library member stocks (1×, 200 μL) were added to aspirated cells and replicated twelve times on each plate. Cells were incubated with the library members for 24 h before optical density reading. Test plates were removed from the incubator and washed once in sterile PBS to remove serum containing library members. Freshly-made 10×MTT solution in sterile PBS (5 mg/mL) was diluted 1:10 in serum-free culture medium and was sterilized using a 0.2 μm filter. Diluted MTT solution (1×, 50 μL) was added to each well and the plates were incubated in the dark for 2 h. Test plates were centrifuged at 1800×g for 5 min at 4° C. using a Beckman GPR centrifuge. MTT solution was removed by aspiration and 100 μL DMSO was added to each well to lyse cells and solubilize formazan crystals. Test plates were incubated in the dark at room temperature for 10 min. Plates were read for optical density at 570 nm.
IC50 Calculations. For each library member, at least three dose-response experiments were conducted on separate plates. […] To calculate IC50, percent inhibitions were plotted as a function of log[concentration] and then fit to a four-parameter logistic model that allowed for a variable Hill slope by using XLFIT 4.1 (ID Business Solutions, Emeryville, Calif.).
In assay [20] the test system is human cancer cell lines. Kind of assay: Cytotoxicity across the panel of human cancer cell lines (average, high-throughput assays). The note with it: for Cancerous Average IC50 / Average IC50 in Cancer Cell Lines / IC50: average across eight human cancer cell lines, MTT (HT-29) values excluded; for IC50: read-out: Cancerous Average IC50 / Average IC50 in Cancer Cell Lines. The assay is classed as cell-based.
From the text: as §1

Marks after values point to notes of the source that are not given here.

On to `S=C=NCC1CCCCC1` [Compound 18, (isothiocyanatomethyl)cyclohexane], for which the IC50 was 18.7 µM in assay [1]; 24.4 µM in assay [2]; 21.9 µM in assay [3]; 20.9 µM in [4]; 42.1 µM in assay [5]; 29.3 µM in [6]. Also, the IC50 was 15.1 µM in assay [7]; 15.4 µM in assay [8]; 29.1 µM in assay [9]; 33.7 µM in assay [10]; over 50 µM in [11]; over 50 µM in assay [12]. Besides, the IC50 in assay [13] is 48.1 µM; in assay [14] it was over 50 µM; in [15] it was over 30 µM; in assay [16], 33.3 µM; in assay [17], 22.5 µM; in assay [18], 14.8 µM. Further, the IC50 in [19] is over 50 µM; in [20], 29.3 µM. Besides, in [20], the “Cancerous Average IC50 / Average IC50 in Cancer Cell Lines” value is 29.31^d μM.

For `COc1cccc(CN=C=S)c1OC` [Compound 27], the IC50 in [1] is 2.46 µM; in assay [2], 8.24 µM; in [3], under 1.88 µM; in assay [4] it was 6.72 µM; in [5], 1.37 µM; in [6], 4.87 µM. Besides, the IC50 in assay [7] was 4.26 µM; in assay [8] it was 3.21 µM; in [9], 2.55 µM; in assay [10] it was 5.47 µM; in assay [11], 5.61 µM; in assay [12] it was 20.8 µM. In addition, the IC50 in assay [13] was 15.8 µM; in [14], 16.1 µM; in [15] it was 5.81 µM; in assay [16], 3.22 µM; in assay [17] it was 5.59 µM; in assay [18], 3.78 µM.

With `S=C=N[C@@H]1CCCc2ccccc21` [Compound 32, (R)-1-isothiocyanato-1,2,3,4-tetrahydronaphthalene], the IC50 in assay [1] was 5.27 µM; in [2], 8.66 µM; in assay [3] it was 12.5 µM; in assay [4], 9.05 µM; in assay [5] it was under 3.13 µM; in assay [6], 3.59 ± 0.16 µM. Moreover, the IC50 is 5.75 µM in [7]; 7.73 µM in assay [8]; 5.18 µM in [9]; 7.74 µM in assay [10]; 18.7 µM in assay [13]; 13.3 µM in assay [14]. The IC50 is 3.88 µM in assay [15]; 7.83 µM in assay [16]; 17.2 µM in [17]; 17 µM in [18]; 20.4 µM in assay [19]; 8.27 µM in [20]. Further, in assay [20], the “Cancerous Average IC50 / Average IC50 in Cancer Cell Lines” value is 8.27^g μM. Further, the “fold more potent than 23” value in [20] (in general, across cell lines) is about 1.2 fold. Besides, the “fold more potent than the S-enantiomer 31” value in assay [20] (in general, across cell lines) is recorded as “approximately 2.0 fold”.

Take `C[S@+]([O-])CCCCN=C=S` [D-sulforaphane]: the “% bioactive (relative to L-sulforaphane)” value in [12] (NCI/ADR RES, inferred from racemate 13 versus 2) was 9%; in assay [14] (NCI-H460, inferred from racemate 13 versus 2), 14%; in assay [16] (MCF7, inferred from racemate 13 versus 2) it was 0%.
